This test addresses T1, RORγ-LBD (Homo sapiens, UniProt P51449).
T1 construct: HIS-tagged RORγ-LBD was recombinantly expressed in SF9 cells; made in house; host or cells: SF9 cells (baculovirus); unpurified lysate
T1 sequence (P51449 269-508 limits assumed): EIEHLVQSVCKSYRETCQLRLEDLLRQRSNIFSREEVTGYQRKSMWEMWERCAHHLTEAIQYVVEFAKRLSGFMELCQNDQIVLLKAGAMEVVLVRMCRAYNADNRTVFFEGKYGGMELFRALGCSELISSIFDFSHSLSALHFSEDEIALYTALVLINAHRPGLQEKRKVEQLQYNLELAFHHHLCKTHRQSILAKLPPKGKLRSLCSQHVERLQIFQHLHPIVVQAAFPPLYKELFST
As to the kind of experiment: RORγ-Ligand Binding Domain TR-FRET Assay. The test is classed as biochemical. The settings on record: Table 8, indazoles. As for the experimental part:
HIS-tagged RORγ-LBD was recombinantly expressed in SF9 cells using a baculovirus expression system. The protein was not purified. Cells were lysed and the lysate was used as a source for RORγ-LBD for the assay. A 1:80 dilution of RORγ-LBD lysate in assay buffer (25 mM HEPES pH 7.0, 100 mM NaCl, 0.01% Tween, 0.1% BSA) was prepared and 5 μL was added to each well (RORγ-LBD final concentration ˜10 nM). Control wells received lysate from SF9 cells not expressing RORγ-LBD.
Compounds to be tested were diluted to 100× final test concentration in DMSO and further diluted to 4× final test concentration using assay buffer to provide the test compound mixture. An aliquot (5 μL) of the test compound mixture was added to each well.
A 4× stock of biotinylated-LXXLL peptide from SRC1-2 (Biotin-[…]) was prepared in assay buffer and a 5 μL aliquot added to each well (450 nM final concentration). A 4× solution of europium tagged anti-HIS antibody (2 nM final concentration) and APC conjugated streptavidin (60 nM final concentration) were prepared and a 5 μL aliquot added to each well.
The final assay mixture was incubated for 4 hours to overnight, and the fluorescence signal was measured on an Envision plate reader: (Excitation filter=340 nm; APC emission=665 nm; Europium emission=615 nm; dichroic mirror=D400/D630; delay time=100 μs, integration time=200 μs).
IC50 values for test compounds were calculated from the quotient of the fluorescence signal at 665 nm divided by the fluorescence signal at 615 nm using GraphPad Prism software.
For orientation: In TR-FRET formats the signal depends on donor and acceptor labels being close together.

What is called IC50 is the point on the concentration scale where inhibition reaches its midpoint. Higher therefore signals lower potency.

Compound `CC(C)(C)c1cccc(S(=O)(=O)n2ncc3ccc(NC(=O)c4c(Cl)cccc4C(F)(F)F)cc32)c1` [Compound V-34] registered an IC50 of under 15 µM.
For the compound `O=C(Nc1ccc2cnn(S(=O)(=O)c3cccc(OC(F)F)c3)c2c1)c1c(Cl)cccc1C(F)(F)F` [Compound V-35], the IC50 was under 15 µM.
The value for `CC(=O)c1cccc(S(=O)(=O)n2ncc3ccc(NC(=O)c4c(Cl)cccc4C(F)(F)F)cc32)c1` [Compound V-36] was under 15 µM.
As for `Cc1cccc(S(=O)(=O)n2ncc3ccc(NC(=O)c4c(Cl)cccc4C(F)(F)F)cc32)c1` [Compound V-37], the figure is under 15 µM.
As for `O=C(Nc1ccc2cnn(S(=O)(=O)Cc3ccc(C(F)(F)F)cc3)c2c1)c1c(Cl)cccc1C(F)(F)F` [Compound V-38], the figure is under 15 µM.
Compound `O=C(Nc1ccc2cnn(S(=O)(=O)c3cccc(Cl)c3)c2c1)c1c(Cl)cccc1C(F)(F)F` [Compound V-39] returned an IC50 of under 15 µM.
As for `COc1cccc(S(=O)(=O)n2ncc3ccc(NC(=O)c4c(Cl)cccc4C(F)(F)F)cc32)c1` [Compound V-40], the figure is under 15 µM; as for `O=C(Nc1ccc2cnn(S(=O)(=O)c3cccc(OC(F)(F)F)c3)c2c1)c1c(Cl)cccc1C(F)(F)F` [Compound V-41], under 15 µM.
For `O=C(Nc1ccc2cnn(S(=O)(=O)c3cccc(C(F)(F)F)c3)c2c1)c1c(Cl)cccc1C(F)(F)F` [Compound V-42], the IC50 was under 15 µM.
Turning to `Cc1nn(C(F)F)cc1S(=O)(=O)n1ncc2ccc(NC(=O)c3c(F)cccc3C(F)(F)F)cc21` [Compound V-43], the IC50 was under 15 µM.
The value for `O=C(Nc1ccc2cnn(S(=O)(=O)c3ccc(F)c(C(F)(F)F)c3)c2c1)c1c(F)cccc1C(F)(F)F` [Compound V-44] was under 15 µM; that for `O=C(Nc1ccc2cnn(S(=O)(=O)c3cccc(OC(F)F)c3)c2c1)c1c(F)cccc1C(F)(F)F` [Compound V-45] was under 15 µM; that for `Cc1cccc(S(=O)(=O)n2ncc3ccc(NC(=O)c4c(F)cccc4C(F)(F)F)cc32)c1` [Compound V-46] was under 15 µM.
For the compound `O=C(Nc1ccc2cnn(S(=O)(=O)Cc3ccc(C(F)(F)F)cc3)c2c1)c1c(F)cccc1C(F)(F)F` [Compound V-47], the IC50 was under 15 µM.
The value for `O=C(Nc1ccc2cnn(S(=O)(=O)c3cccc(Cl)c3)c2c1)c1c(F)cccc1C(F)(F)F` [Compound V-48] was under 15 µM; that for `COc1cccc(S(=O)(=O)n2ncc3ccc(NC(=O)c4c(F)cccc4C(F)(F)F)cc32)c1` [Compound V-49] was under 15 µM.
As for `O=C(Nc1ccc2cnn(S(=O)(=O)c3cccc(OC(F)(F)F)c3)c2c1)c1c(F)cccc1C(F)(F)F` [Compound V-50], the figure is under 15 µM.
The value for `O=C(Nc1ccc2cnn(S(=O)(=O)c3cccc(C(F)(F)F)c3)c2c1)c1c(F)cccc1C(F)(F)F` [Compound V-51] was under 15 µM.
In turn, `Cc1cccc(S(=O)(=O)n2nc(Br)c3ccc(NC(=O)c4c(F)cccc4Cl)cc32)c1` [Compound V-52] had an IC50 of under 15 µM.
`O=C(Nc1ccc2cnn(S(=O)(=O)c3cccc(Cl)c3)c2c1)c1c(F)cccc1Cl` [Compound V-53] showed an IC50 of under 15 µM.
For the compound `O=C(Nc1ccc2cnn(S(=O)(=O)c3cccc(OC(F)(F)F)c3)c2c1)c1c(F)cccc1Cl` [Compound V-54], the IC50 is under 15 µM.
As for `O=C(Nc1ccc2cnn(S(=O)(=O)c3cccc(C(F)(F)F)c3)c2c1)c1c(F)cccc1Cl` [Compound V-55], the figure is under 15 µM; as for `O=C(Nc1ccc2cnn(S(=O)(=O)c3ccc(F)c(C(F)(F)F)c3)c2c1)c1c(F)cccc1F` [Compound V-56], under 15 µM.
The value for `CC(C)(C)c1cccc(S(=O)(=O)n2ncc3ccc(NC(=O)c4c(F)cccc4F)cc32)c1` [Compound V-57] was under 15 µM.
As for `O=C(Nc1ccc2cnn(S(=O)(=O)c3cccc(OC(F)F)c3)c2c1)c1c(F)cccc1F` [Compound V-58], the figure is under 15 µM; as for `CC(=O)c1cccc(S(=O)(=O)n2ncc3ccc(NC(=O)c4c(F)cccc4F)cc32)c1` [Compound V-59], under 15 µM.
For `Cc1cccc(S(=O)(=O)n2ncc3ccc(NC(=O)c4c(F)cccc4F)cc32)c1` [Compound V-60], the IC50 was under 15 µM.
Compound `O=C(Nc1ccc2cnn(S(=O)(=O)c3cccc(Cl)c3)c2c1)c1c(F)cccc1F` [Compound V-61] yielded an IC50 of under 15 µM.
As for `COc1cccc(S(=O)(=O)n2ncc3ccc(NC(=O)c4c(F)cccc4F)cc32)c1` [Compound V-62], the figure is under 15 µM.
As for `O=C(Nc1ccc2cnn(S(=O)(=O)c3cccc(OC(F)(F)F)c3)c2c1)c1c(F)cccc1F` [Compound V-63], the figure is under 15 µM; as for `O=C(Nc1ccc2cnn(S(=O)(=O)c3cccc(C(F)(F)F)c3)c2c1)c1c(F)cccc1F` [Compound V-64], under 15 µM; as for `Cc1nn(C(F)F)cc1S(=O)(=O)n1ncc2ccc(NC(=O)c3c(Cl)cccc3Cl)cc21` [Compound V-65], under 15 µM.
The value for `O=C(Nc1ccc2cnn(S(=O)(=O)c3ccc(F)c(C(F)(F)F)c3)c2c1)c1c(Cl)cccc1Cl` [Compound V-66] was under 15 µM; that for `CC(C)(C)c1cccc(S(=O)(=O)n2ncc3ccc(NC(=O)c4c(Cl)cccc4Cl)cc32)c1` [Compound V-67] was under 15 µM; that for `O=C(Nc1ccc2cnn(S(=O)(=O)c3cccc(OC(F)F)c3)c2c1)c1c(Cl)cccc1Cl` [Compound V-68] was under 15 µM.
In turn, `CC(=O)c1cccc(S(=O)(=O)n2ncc3ccc(NC(=O)c4c(Cl)cccc4Cl)cc32)c1` [Compound V-69] registered an IC50 of under 15 µM.
`Cc1cccc(S(=O)(=O)n2ncc3ccc(NC(=O)c4c(Cl)cccc4Cl)cc32)c1` [Compound V-70] showed an IC50 of under 15 µM.
As for `O=C(Nc1ccc2cnn(S(=O)(=O)Cc3ccc(C(F)(F)F)cc3)c2c1)c1c(Cl)cccc1Cl` [Compound V-71], the figure is under 15 µM; as for `O=C(Nc1ccc2cnn(S(=O)(=O)c3cccc(Cl)c3)c2c1)c1c(Cl)cccc1Cl` [Compound V-72], under 15 µM.
As for `COc1cccc(S(=O)(=O)n2ncc3ccc(NC(=O)c4c(Cl)cccc4Cl)cc32)c1` [Compound V-73], the figure is under 15 µM; as for `O=C(Nc1ccc2cnn(S(=O)(=O)c3cccc(OC(F)(F)F)c3)c2c1)c1c(Cl)cccc1Cl` [Compound V-74], under 15 µM.
The compound `O=C(Nc1ccc2cnn(S(=O)(=O)c3cccc(C(F)(F)F)c3)c2c1)c1c(Cl)cccc1Cl` [Compound V-75] gave an IC50 of under 15 µM.
As for `O=C(Nc1ccc2cnn(S(=O)(=O)c3ccc(F)c(Cl)c3)c2c1)c1c(F)cccc1Cl` [Compound V-76], the figure is under 15 µM; as for `Cc1cc(F)ccc1S(=O)(=O)n1ncc2ccc(NC(=O)c3ccc(F)cc3Cl)cc21` [Compound V-77], under 15 µM; as for `COc1ccc(C)cc1S(=O)(=O)n1ncc2ccc(NC(=O)c3c(F)cccc3Cl)cc21` [Compound V-78], under 15 µM.
Regarding `O=C(Nc1ccc2cnn(S(=O)(=O)C3CCOCC3)c2c1)c1c(F)cccc1Cl` [Compound V-79], the half-maximal inhibitory concentration (IC50) is under 15 µM.
Turning to `O=C(Nc1ccc2cnn(S(=O)(=O)c3ccc(Cl)c(F)c3)c2c1)c1c(F)cccc1Cl` [Compound V-80], the IC50 was under 15 µM.
As for `O=C(Nc1ccc2cnn(S(=O)(=O)c3ccc(F)c(C(F)(F)F)c3)c2c1)c1c(F)cccc1Cl` [Compound V-81], the figure is under 15 µM; as for `O=C(Nc1ccc2cnn(S(=O)(=O)c3cc(Cl)sc3Cl)c2c1)c1c(F)cccc1Cl` [Compound V-82], under 15 µM; as for `COc1ccc(Br)cc1S(=O)(=O)n1ncc2ccc(NC(=O)c3c(F)cccc3Cl)cc21` [Compound V-83], under 15 µM.
Consider `O=C(Nc1ccc2cnn(S(=O)(=O)c3ccccc3Br)c2c1)c1c(F)cccc1Cl` [Compound V-84], for which the IC50 was under 15 µM.
Consider `O=C(Nc1ccc2cnn(S(=O)(=O)c3cccc(OC(F)F)c3)c2c1)c1c(F)cccc1Cl` [Compound V-85], for which the IC50 was under 15 µM.
Compound `O=C(Nc1ccc2cnn(S(=O)(=O)Cc3cccc(Cl)c3)c2c1)c1c(F)cccc1Cl` [Compound V-86] gave a 50% inhibitory concentration (IC50) of under 15 µM.
On to `N#Cc1ccccc1S(=O)(=O)n1ncc2ccc(NC(=O)c3c(F)cccc3Cl)cc21` [Compound V-87], for which the half-maximal inhibitory concentration (IC50) is under 15 µM.
`O=C(Nc1ccc2cnn(S(=O)(=O)c3ccc(C(F)(F)F)cc3)c2c1)c1c(F)cccc1Cl` [Compound V-88]: the IC50 was under 15 µM.
As to `Cc1nc(C)c(S(=O)(=O)n2ncc3ccc(NC(=O)c4c(F)cccc4Cl)cc32)s1` [Compound V-89], the IC50 was under 15 µM.
With `Cc1nn(C)c(C)c1S(=O)(=O)n1ncc2ccc(NC(=O)c3c(F)cccc3Cl)cc21` [Compound V-90], the IC50 was under 15 µM.

The record behind these values is patent publication US9512111B2, “N-sulfonylated tetrahydroquinolines and related bicyclic compounds for inhibition of RORγ activity and the treatment of disease” (Lycera Corporation, priority 2010, dated 2016).
